The results in this text go back to patent US9464326B2, “Total and phosphorylated IL-1 receptor-associated kinase-1 and IL-1 receptor-associated kinase-4 as a biomarker for cancer progression and chemotherapy resistance” (University of Maryland, Baltimore, priority 2012, dated 2016).

The structures appear in SMILES notation.

This assay concerns CCRF-CEM cells. In words: Cell number and apoptosis assays. Format: cell-based, human. Particulars: IRAK-1,-4 inhibitor 0-20 μM plus titrated drug, apoptosis by 7AAD at 48 hours, FIG. 23. The protocol: TLR ligands were diluted 2-fold. Cell lines (25-40×10^3/well) were cultured for 54 hours, whereas fresh patient-derived T-ALL cells (200×10^3/well) were cultured for 30 hours prior to adding [^3H]-thymidine for 18 hours. After this time point, cells were harvested with a Packard Filter-Mate-96 cell harvester (Perkin Elmer, Waltham, Mass., USA) and counted on Packard Top Count-NXT (Perkin Elmer, Waltham, Mass., USA). Results were expressed as average counts per minute (cpm). In some experiments CCRF-CEM cells were pre-treated with TLR1-TLR2 ligand (Pam3CysK4; 2.5 ug/ml) for 48 hrs, washed, and then cultured in the presence of varying concentrations of FBS. Forty-eight hours later, proliferation (±SD) was determined by ^3H-thymidine incorporation. Alternatively, apoptosis was measured by flow cytometry after staining cells with Annexin-V (BD Pharmingen, San Diego, Calif., USA) and propidium iodide (Sigma). Cell number was counted under microscopy by staining cells with trypan blue.
CCRF-CEM cells were treated with IRAK-1,-4 inhibitor for 24, 48, 72, and 96 hours.
The T-ALL cell line CCRF-CEM was cultured in the presence of 0, 1.2, 5, 10, and 20 μM IRAK-1,-4 inhibitor. (FIG. 23). To each concentration of IRAK-1,-4 inhibitor titrating doses of ABT-737 (1000→15 nM) vincristine, VS (10→0.1 nM), and paclitaxol, PAC (100→1.5 nM). […] Apoptosis was measure 48 hours later by staining cells with 7AAD and analyzed by flow cytometry.

On to `CC[C@]1(O)C[C@H]2CN(CCc3c([nH]c4ccccc34)[C@@](C(=O)OC)(c3cc4c(cc3OC)N(C=O)[C@H]3[C@@](O)(C(=O)OC)[C@H](OC(C)=O)[C@]5(CC)C=CCN6CC[C@]43[C@@H]65)C2)C1` [vincristine], for which the “synergy with IRAK-1,-4 inhibitor” value is “synergy”.
